Assay results: patent US20150030544A1, “Enzymatic Nanosensor Compositions and Methods” (Northeastern University, priority 2012, published 2015)

Conditions: mice, 75 mg/kg i.p., averaged data of three experiments, model fit
Experimental: Enzyme nanosensor solutions were prepared using concentrated O2NS nanosensors (25 μL, ˜10^13 particles) and DAO (50 μL, 1.75IU). As a control, O2NS injections were made with concentrated nanosensors (25 μL) diluted with 50 μL of PBS. […] Mice were weighed, anesthetized with isoflurane (2% isoflurane, 98% oxygen), and placed in the IVIS imager. Two intradermal 30 μL injections of nanosensors were made along the midline of the back. Enzyme nanosensor was injected posterior to O2NS. After injection the animals are imaged every 30 seconds for 30 minutes. […] The mice were imaged for an additional 45 minutes to 1 hour. All animals were sacrificed after the end of the experiment. Three separate experiments were performed with new mice and fresh batches of nanosensor solution.
For data analysis, a region of interest encompassing the injection area was selected and intensity was recorded. […] The difference in normalized signals between the enzymatic nanosensors and O2NS was calculated for each mouse. […] The average data was then fit to a single compartment open model: Equation (1)
Where I is the normalized fluorescent intensity difference, A is a scaling parameter, ka and ke are the absorption and elimination rate constants and tlag is the lag time. The parameters ka, ke, and tlag were fit using the method of residuals and A was fit using least squares minimization for plotting purposes.

lag time: 4.8 min
SMILES: Cl.Cl.NCCc1c[nH]cn1 [histamine, histamine dihydrochloride]
